≈ marks a conversion by molar mass, not a printed value.
Tests used:
[1] = Lipophilicity, log D of compound by HPLC analysis; assay type: physicochemical
[2] = Oral bioavailability in rat at 10 mg/kg; assay type: ADME, organism-based; conditions: in vivo
[3] = Kinetic solubility of the compound at pH 7 by HPLC analysis; assay type: physicochemical; conditions: buffer, read-out: Kinetic_solubility
Brain = test: Drug uptake in C57BL/6 mouse brain at 30 mg/kg, po; assay type: ADME, organism-based; conditions: in vivo
[4] = Tmax in po dosed C57BL/6 mouse; assay type: ADME, organism-based; conditions: in vivo
[5] = Drug uptake in CSF of C57BL/6 mouse at 30 mg/kg, po; assay type: ADME, organism-based, Cerebrospinal fluid; conditions: in vivo
[6] = Kinetic solubility of the compound at pH 2 by HPLC analysis; assay type: physicochemical; conditions: buffer, read-out: Kinetic_solubility
Plasma [7] = test: Plasma concentration in C57BL/6 mouse at 3 to 30 mg/kg, po; assay type: ADME, organism-based; conditions: in vivo
Rattus norvegicus = test: Intrinsic clearance in rat at 0.05 mg/kg, iv administered in cassette format or 2 mg/kg, iv administered as single dose or 10 mg/kg, po; assay type: ADME, organism-based; conditions: in vivo
Plasma [8] = test: Plasma concentration in C57BL/6 mouse at 1 to 10 mg/kg, po; assay type: ADME, organism-based; conditions: in vivo

| Structure (SMILES) | logD [1] | bioavailability [2] [%] | CL (Rattus norvegicus) [mL/min/kg] | also measured |
| --- | --- | --- | --- | --- |
| O=S(=O)(Nc1nccs1)c1cc(Cl)c(NCC23CCCN2CCC3)cc1F | 0.7 | 40 |  | solubility kinetic [3]: 43 µM (≈ 18.5 µg/mL); Drug uptake (Brain): 6%; Tmax [4]: 3 h; Drug uptake [5]: 1%; solubility kinetic [6]: 159 µM (≈ 68.5 µg/mL); concentration (Plasma [7]): 420 nM |
| CC1(C)CN2CCC[C@]2(CNc2cc(F)c(S(=O)(=O)Nc3nccs3)cc2Cl)C1 | 1.7 | 61 | 460 | solubility kinetic [3]: 28 µM (≈ 12.9 µg/mL); Tmax [4]: 3 h; solubility kinetic [6]: 143 µM (≈ 65.6 µg/mL); concentration (Plasma [8]): 250 nM |
| Cc1nc(NS(=O)(=O)c2cc(Cl)c(NCC34CCCN3CCC4)cc2F)sc1F | 1.3 |  | 630 |  |
| O=S(=O)(Nc1ncns1)c1cc(Cl)c(NCC23CCCN2CCC3)cc1F | 0.4 |  | 660 |  |
| O=S(=O)(Nc1nccs1)c1cc(Cl)c(NCC23CCCCN2CCCC3)cc1F | 2.2 |  | 3000 |  |
| Cc1cnc(NS(=O)(=O)c2cc(Cl)c(NCC34CCCN3CCC4)cc2F)s1 | 1.1 |  | 560 |  |
| O=S(=O)(Nc1ccncn1)c1cc(Cl)c(NCC23CCCN2CCC3)cc1F | -0.2 |  | 61 |  |
| O=S(=O)(Nc1ncc(F)s1)c1cc(Cl)c(NCC23CCCN2CCC3)cc1F | 1 | 55 | 230 |  |
| O=S(=O)(Nc1nccs1)c1cc(Cl)c(NC[C@]23CCCN2C[C@@H](F)C3)cc1F | 1.5 | 57 | 810 |  |
| O=S(=O)(Nc1cscn1)c1cc(Cl)c(NCC23CCCN2CCC3)cc1F | 0.7 |  |  |  |
| O=S(=O)(Nc1ncns1)c1cc(F)c(NCC23CCCN2CCC3)cc1F | 0 | 4 | 62 |  |
| O=S(=O)(Nc1nccs1)c1cc(Cl)c(NCC23CCCN2CC(F)(F)C3)cc1F (configuration not stated) | 1.7 |  |  |  |
| CC1(C)CN2CCC[C@@]2(CNc2cc(F)c(S(=O)(=O)Nc3nccs3)cc2Cl)C1 | 1.7 | 45 | 850 |  |
| Cc1csc(NS(=O)(=O)c2cc(Cl)c(NCC34CCCN3CCC4)cc2F)n1 | 1.1 | 36 | 71 |  |
| O=S(=O)(Nc1nccs1)c1cc(Cl)c(NCCC23CCCN2CCC3)cc1F | 0.6 | 30 | 1600 |  |
| O=S(=O)(Nc1ncc(Cl)s1)c1cc(Cl)c(NCC23CCCN2CCC3)cc1F | 1.3 | 45 | 780 |  |
| O=S(=O)(Nc1nccs1)c1cc(Cl)c(NC[C@@]23CCCN2C[C@H](F)C3)cc1F | 1.5 |  |  |  |
| O=S(=O)(Nc1cccc(F)n1)c1cc(Cl)c(NCC23CCCN2CCC3)cc1F | 1 | 26 | 610 |  |
